Assay: Human HepG2 cell viability assay in 384 well format
Assay type: toxicity, cell-based
Parameters: dose 125 nL, time 70.5 hour; concentration not given beside the values
Details: HepG2 cells, read-out: Inhibition

O=C(Cc1ccc2c(c1)OCCO2)NC1CCCC1
cytotoxicity at 70.5 h: 10.8%

COc1ncccc1NC(=O)C1CCN(S(C)(=O)=O)CC1
cytotoxicity at 70.5 h: -9.19%

CN(C)c1cc(CNC(=O)c2ccc(F)cc2F)ccn1
cytotoxicity at 70.5 h: -10.5%

CC(NC(=O)c1cccs1)C(=O)NCc1cccnc1N1CCCCC1 (stereo unspecified)
cytotoxicity at 70.5 h: -16.1%

Cc1ncsc1C(=O)NC1CCN(Cc2cccnc2)CC1
cytotoxicity at 70.5 h: 0.341%

CCc1nnc2n1CCN(CCS(=O)(=O)c1ccccc1)C2
cytotoxicity at 70.5 h: -11.4%

Cc1nnc2n1CCN(CCS(=O)(=O)c1ccccc1)C2
cytotoxicity at 70.5 h: -9.06%

Cc1nc(C)n(CC2CCCCN2CC(=O)NC2CCOCC2)n1 (stereo unspecified)
cytotoxicity at 70.5 h: -5.93%

CCc1nc(CN2CCCN(C(=O)C(C)n3cncn3)CC2)cs1 (stereo unspecified)
cytotoxicity at 70.5 h: -8.34%

CCc1nc(CN2CCCN(C(=O)C(C)n3ccnc3)CC2)cs1 (stereo unspecified)
cytotoxicity at 70.5 h: -9%

CC(NC(=O)NCc1cccnc1N1CCCCC1)c1nccs1 (stereo unspecified)
cytotoxicity at 70.5 h: -4.81%

CC(O)CN1CCN(C(=O)c2ccn(-c3cccc(Cl)c3)n2)CC1 (stereo unspecified)
cytotoxicity at 70.5 h: 13.7%

CSCc1cccc(C(=O)N2CCN(CC(C)O)CC2)c1 (stereo unspecified)
cytotoxicity at 70.5 h: -14.6%

COc1ccc(C(C)N2CCN(Cc3nccn3C)CC2)cc1Cl (stereo unspecified)
cytotoxicity at 70.5 h: -6.8%

Cc1cc(C)n(C2CN(CC(O)COc3ccc(F)cc3)C2)n1 (stereo unspecified)
cytotoxicity at 70.5 h: -16.7%

Cc1cccnc1CNc1cc(N2CCCC2CO)ncn1 (stereo unspecified)
cytotoxicity at 70.5 h: -8.44%

Cn1c(C2CC2)nc2c1CCN(CCOc1ccc(C#N)cc1)C2
cytotoxicity at 70.5 h: -9.07%

CC(C)c1cc(NC(=O)CN2CCc3c(nc(C(C)C)n3C)C2)on1
cytotoxicity at 70.5 h: -15%

CCc1nc(CN(C)C2CCN(CCNS(=O)(=O)CC)C2)no1 (stereo unspecified)
cytotoxicity at 70.5 h: 46.2%

FC(F)(F)Cn1ccnc1CN1CCCC1c1noc(C2CC2)n1 (stereo unspecified)
cytotoxicity at 70.5 h: -0.904%

CN(Cc1nnc(C2CC2)o1)C1CCN(CCCc2cnn(C)c2)C1 (stereo unspecified)
cytotoxicity at 70.5 h: 6.71%

CCc1nc(CN(C)C2CCN(CCS(C)(=O)=O)C2)no1 (stereo unspecified)
cytotoxicity at 70.5 h: 2.72%

CCc1nc(CN(C)C2CCN(CCc3ccccn3)C2)no1 (stereo unspecified)
cytotoxicity at 70.5 h: 3.72%

Fc1cccc(-c2nc(CN3CCn4c(nnc4C4CC4)C3)co2)c1
cytotoxicity at 70.5 h: -8.24%

Cc1nn2cccnc2c1C(=O)N1CCCC(n2ccnc2)C1 (stereo unspecified)
cytotoxicity at 70.5 h: -4.78%

CC(C)c1noc(CCC(=O)NCC2CCS(=O)(=O)C2)n1 (stereo unspecified)
cytotoxicity at 70.5 h: 1.64%

O=C(NCc1cc[nH]n1)NCC(O)c1ccc(F)cc1F (stereo unspecified)
cytotoxicity at 70.5 h: -9.36%

COc1ccc(C(C)NC(=O)NCCCn2cncn2)cc1F (stereo unspecified)
cytotoxicity at 70.5 h: -4.51%

NC(=O)NC(=O)CCN1CCCN(c2nccs2)CC1
cytotoxicity at 70.5 h: 0.668%

CCOc1ccc(CN2CCN(C(=O)c3ccc(C)n3C)CC2)cc1
cytotoxicity at 70.5 h: -0.122%

Cc1noc(Cl)c1CCC(=O)N1CCc2sccc2C1
cytotoxicity at 70.5 h: -1.52%

Cc1ncc2c(n1)CN(CCCc1nc3ccccc3o1)CC2
cytotoxicity at 70.5 h: -0.537%

CC(C)c1nnc2n1CCN(C(=O)c1ccnc(N(C)C)c1)C2
cytotoxicity at 70.5 h: -0.0863%

Cc1ccc(NC2CCN(C(=O)c3cccc4ncccc34)CC2)nn1
cytotoxicity at 70.5 h: 1.63%

COc1cc(S(=O)(=O)N2CCc3ccc(F)cc32)cc(C(=O)O)c1OC
cytotoxicity at 70.5 h: 10.1%

O=C(NCCCNc1ccccc1)c1scnc1Cl
cytotoxicity at 70.5 h: 4.41%

Fc1ccc(-c2nnc(CN3CCn4c(nnc4C4CC4)C3)o2)cc1
cytotoxicity at 70.5 h: -5.47%

Cc1ccc(C(N)c2cccc(S(C)(=O)=O)c2)cc1 (stereo unspecified)
cytotoxicity at 70.5 h: 4.98%

COc1ccc(C(N)c2cccc(S(C)(=O)=O)c2)cc1 (stereo unspecified)
cytotoxicity at 70.5 h: -1.22%

COc1cc(S(=O)(=O)N2CCCc3ccccc32)cc(C(=O)O)c1OC
cytotoxicity at 70.5 h: 5.62%

c1csc(-c2nc(CN3CCn4c(nnc4C4CC4)C3)co2)c1
cytotoxicity at 70.5 h: -13.1%

Cc1cc(S(=O)(=O)N2CCc3ccc(F)cc32)cc(C(=O)O)c1C
cytotoxicity at 70.5 h: 6.28%

CC(C)(C)c1nnc(CN2CCn3c(nnc3C3CC3)C2)o1
cytotoxicity at 70.5 h: -0.488%

Cc1nn2cccnc2c1C(=O)N1CCCC(Nc2ccccc2)C1 (stereo unspecified)
cytotoxicity at 70.5 h: -0.861%

O=C(NCc1cc[nH]n1)N(CCCO)C1CCc2ccccc21 (stereo unspecified)
cytotoxicity at 70.5 h: -0.509%

CS(=O)(=O)c1cccc(C(N)c2ccc(F)c(F)c2)c1 (stereo unspecified)
cytotoxicity at 70.5 h: -4.97%
